# Experimental data published in PubChem BioAssay (NCI).
#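 Values below derive from 48-hour exposures of cells grown in 96-well plates, with endpoints linearly interpolated between the two concentrations bracketing the appropriate inhibition level. Here, GI50 denotes the concentration required for 50% inhibition of growth. Definition used: TGI = concentration required for complete inhibition of growth.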
# Key:
# Assay in all cases: NCI tumour cell line growth inhibition, 48 h
# A498 renal = test system: A498 renal
# HOP-62 NSCLC = test system: HOP-62 NSCLC
# OVCAR-5 ovarian = test system: OVCAR-5 ovarian
# SF-539 CNS = test system: SF-539 CNS
# KM12 colon = test system: KM12 colon
# PC-3 prostate = test system: PC-3 prostate
# MCF7 breast = test system: MCF7 breast
# SN12C renal = test system: SN12C renal
# RPMI-8226 leukemia = test system: RPMI-8226 leukemia
# NCI-H522 lung = test system: NCI-H522 lung
# DU-145 prostate = test system: DU-145 prostate
# SK-MEL-2 melanoma = test system: SK-MEL-2 melanoma
# HCT-15 colon = test system: HCT-15 colon
# UACC-62 melanoma = test system: UACC-62 melanoma
# A549 NSCLC = test system: A549 NSCLC
# 786-0 renal = test system: 786-0 renal
# IGROV1 ovarian = test system: IGROV1 ovarian
# HCT-116 colon = test system: HCT-116 colon
# CCRF-CEM leukemia = test system: CCRF-CEM leukemia
# RXF 393 renal = test system: RXF 393 renal
# COLO 205 colon = test system: COLO 205 colon
# MDA-MB-231 breast = test system: MDA-MB-231 breast
# SK-MEL-5 melanoma = test system: SK-MEL-5 melanoma
# OVCAR-3 ovarian = test system: OVCAR-3 ovarian
# SNB-75 CNS = test system: SNB-75 CNS
# U251 CNS = test system: U251 CNS
# MOLT-4 leukemia = test system: MOLT-4 leukemia
# UACC-257 melanoma = test system: UACC-257 melanoma
smiles,measurement,setting,value
CCCCCCNC(=O)Oc1ccc(/C(=C(/C)c2ccccc2)c2ccc(OCCN3CCCCCC3)cc2)cc1,GI50,A498 renal,15.7 µM
same,TGI,A498 renal,29.4 µM
same,GI50,HOP-62 NSCLC,13 µM
same,TGI,HOP-62 NSCLC,26.9 µM
same,GI50,OVCAR-5 ovarian,12.4 µM
same,TGI,OVCAR-5 ovarian,27 µM
same,GI50,SF-539 CNS,7.23 µM
same,TGI,SF-539 CNS,21 µM
same,GI50,KM12 colon,6.31 µM
same,TGI,KM12 colon,35.6 µM
same,GI50,PC-3 prostate,6.2 µM
same,TGI,PC-3 prostate,20.4 µM
same,GI50,MCF7 breast,0.172 µM
same,TGI,MCF7 breast,13.1 µM
same,GI50,SN12C renal,10.4 µM
same,TGI,SN12C renal,23.7 µM
same,GI50,RPMI-8226 leukemia,3.99 µM
same,TGI,RPMI-8226 leukemia,23 µM
same,GI50,NCI-H522 lung,12.6 µM
same,TGI,NCI-H522 lung,26 µM
same,GI50,DU-145 prostate,15.7 µM
same,TGI,DU-145 prostate,37.7 µM
same,GI50,SK-MEL-2 melanoma,14.1 µM
same,TGI,SK-MEL-2 melanoma,27.6 µM
same,GI50,HCT-15 colon,2.83 µM
same,TGI,HCT-15 colon,9.61 µM
same,GI50,UACC-62 melanoma,9.09 µM
same,TGI,UACC-62 melanoma,22 µM
same,GI50,A549 NSCLC,12.1 µM
same,TGI,A549 NSCLC,26.4 µM
same,GI50,786-0 renal,5.42 µM
same,TGI,786-0 renal,18.7 µM
same,GI50,IGROV1 ovarian,11.9 µM
same,TGI,IGROV1 ovarian,27.9 µM
same,GI50,HCT-116 colon,4.33 µM
same,TGI,HCT-116 colon,16.9 µM
same,GI50,CCRF-CEM leukemia,11.5 µM
same,TGI,CCRF-CEM leukemia,> 100 µM
same,GI50,RXF 393 renal,2.63 µM
same,TGI,RXF 393 renal,9.11 µM
same,GI50,COLO 205 colon,3.14 µM
same,TGI,COLO 205 colon,12.1 µM
same,GI50,MDA-MB-231 breast,12.8 µM
same,TGI,MDA-MB-231 breast,26.8 µM
same,GI50,SK-MEL-5 melanoma,14.2 µM
same,TGI,SK-MEL-5 melanoma,27.6 µM
same,GI50,OVCAR-3 ovarian,12 µM
same,TGI,OVCAR-3 ovarian,28.8 µM
same,GI50,SNB-75 CNS,9.25 µM
same,TGI,SNB-75 CNS,21.7 µM
same,GI50,U251 CNS,7.25 µM
same,TGI,U251 CNS,20.7 µM
same,GI50,MOLT-4 leukemia,3.48 µM
same,TGI,MOLT-4 leukemia,25 µM
same,GI50,UACC-257 melanoma,3.75 µM
same,TGI,UACC-257 melanoma,14.5 µM
